Measured values published in ChEMBL document CHEMBL1201862, “PubChem BioAssay data set” (2004).
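Five concentrations, 48 hours, 96-well plates. GI50: concentration for 50% inhibition of growth.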 Activity calls are given as the source filed them. No stated cut-off is given here; in the data, active = GI50 up to about 1.1 µM and inactive = higher.

Key:
Experiment in all cases: NCI-60 cell line screen, 48 h
[1] = system: RXF 631
[2] = system: SN12C
[3] = system: IGROV-1
[4] = system: HT-29
[5] = system: SK-OV-3
[6] = system: SF-539
[7] = system: HOP-18
[8] = system: SK-MEL-2
[9] = system: A549
[10] = system: HCT-15
[11] = system: K562
[12] = system: RPMI-8226
[13] = system: MOLT-4
[14] = system: SF-268
[15] = system: DLD-1
[16] = system: OVCAR-3
[17] = system: CCRF-CEM
[18] = system: SK-MEL-28
[19] = system: KM12
[20] = system: NCI-H522
[21] = system: U-251
[22] = system: RXF 393
[23] = system: SF-295
[24] = system: ACHN
[25] = system: LOX IMVI
[26] = system: HOP-62
[27] = system: NCI-H460
[28] = system: UACC-257
[29] = system: NCI-H226
[30] = system: 786-0
[31] = system: UO-31
[32] = system: HCC 2998
[33] = system: OVCAR-4
[34] = system: CAKI-1
[35] = system: TK-10
[36] = system: OVCAR-8
[37] = system: LXFL 529
[38] = system: HOP-92
[39] = system: XF498
[40] = system: M19-MEL
[41] = system: SK-MEL-5
[42] = system: UACC-62
[43] = system: HL-60
[44] = system: M14
[45] = system: OVCAR-5
[46] = system: SNB-19
[47] = system: SNB-78
[48] = system: DMS-114
[49] = system: SW-620
[50] = system: EKVX
[51] = system: Malme-3M
[52] = system: HCT-116
[53] = system: NCI-H23
[54] = system: A498
[55] = system: SR
[56] = system: COLO 205
[57] = system: SNB-75
[58] = system: DMS-273
[59] = system: Hs-578T
[60] = system: PC-3
[61] = system: MDA-MB-231
[62] = system: MDA-N
[63] = system: KM-20L2
[64] = system: BT-549
[65] = system: DU-145
[66] = system: T47D
[67] = system: MDA-MB-435

CC1=C(C(=O)CC(=O)C(=O)Nc2cc(C)ccc2C)Sc2ccccc2N1
GI50 [1]: > 100 µM (inactive)
GI50 [2]: > 100 µM (inactive)
GI50 [3]: > 100 µM (inactive)
GI50 [4]: > 100 µM (inactive)
GI50 [5]: > 100 µM (inactive)
GI50 [6]: > 100 µM (inactive)
GI50 [7]: > 100 µM (inactive)
GI50 [8]: > 100 µM (inactive)
GI50 [9]: > 100 µM (inactive)
GI50 [10]: > 100 µM
GI50 [11]: > 100 µM (inactive)
GI50 [12]: > 100 µM (inactive)
GI50 [13]: 66.7 µM (inactive)
GI50 [14]: > 100 µM (inactive)
GI50 [15]: 92.3 µM (inactive)
GI50 [16]: > 100 µM (inactive)
GI50 [17]: 80.9 µM (inactive)
GI50 [18]: > 100 µM (inactive)
GI50 [19]: > 100 µM (inactive)
GI50 [20]: > 100 µM (inactive)
GI50 [21]: > 100 µM (inactive)
GI50 [22]: > 100 µM (inactive)
GI50 [23]: 32 µM (inactive)
GI50 [24]: > 100 µM (inactive)
GI50 [25]: > 100 µM (inactive)
GI50 [26]: > 100 µM (inactive)
GI50 [27]: > 10 µM (inactive)
GI50 [28]: > 100 µM (inactive)
GI50 [29]: > 100 µM (inactive)
GI50 [30]: > 100 µM (inactive)
GI50 [31]: > 100 µM (inactive)
GI50 [32]: > 100 µM (inactive)
GI50 [33]: > 100 µM (inactive)
GI50 [34]: > 100 µM (inactive)
GI50 [35]: > 100 µM (inactive)
GI50 [36]: 66.8 µM (inactive)
GI50 [37]: > 100 µM (inactive)
GI50 [38]: 85.7 µM (inactive)
GI50 [39]: > 100 µM (inactive)
GI50 [40]: > 100 µM (inactive)
GI50 [41]: > 100 µM (inactive)
GI50 [42]: > 100 µM (inactive)
GI50 [43]: > 100 µM (inactive)
GI50 [44]: > 100 µM (inactive)
GI50 [45]: > 100 µM (inactive)
GI50 [46]: > 100 µM (inactive)
GI50 [47]: > 100 µM (inactive)
GI50 [48]: > 100 µM (inactive)
GI50 [49]: > 100 µM (inactive)
GI50 [50]: > 100 µM (inactive)
GI50 [51]: > 100 µM (inactive)
GI50 [52]: > 100 µM (inactive)
GI50 [53]: > 100 µM (inactive)

Cn1c(=O)c2ccc(-c3ccc(Br)cc3)nc2n(C)c1=O
GI50 [1]: > 100 µM (inactive)
GI50 [3]: > 100 µM (inactive)
GI50 [4]: > 100 µM (inactive)
GI50 [5]: > 100 µM (inactive)
GI50 [6]: > 100 µM (inactive)
GI50 [7]: > 100 µM (inactive)
GI50 [8]: > 100 µM (inactive)
GI50 [9]: > 100 µM (inactive)
GI50 [10]: > 100 µM
GI50 [54]: > 100 µM (inactive)
GI50 [11]: > 100 µM (inactive)
GI50 [12]: > 100 µM (inactive)
GI50 [55]: > 100 µM (inactive)
GI50 [13]: > 100 µM (inactive)
GI50 [14]: > 100 µM (inactive)
GI50 [15]: > 100 µM (inactive)
GI50 [16]: > 100 µM (inactive)
GI50 [17]: > 100 µM (inactive)
GI50 [56]: > 100 µM (inactive)
GI50 [18]: > 100 µM (inactive)
GI50 [57]: 29.6 µM (inactive)
GI50 [19]: > 100 µM (inactive)
GI50 [20]: > 100 µM (inactive)
GI50 [21]: > 100 µM (inactive)
GI50 [23]: > 100 µM (inactive)
GI50 [25]: > 100 µM (inactive)
GI50 [26]: > 100 µM (inactive)
GI50 [27]: > 100 µM (inactive)
GI50 [28]: > 100 µM (inactive)
GI50 [58]: > 100 µM (inactive)
GI50 [29]: > 100 µM (inactive)
GI50 [30]: > 100 µM (inactive)
GI50 [31]: > 100 µM (inactive)
GI50 [32]: > 100 µM (inactive)
GI50 [33]: > 100 µM (inactive)
GI50 [35]: 49.5 µM (inactive)
GI50 [36]: > 100 µM (inactive)
GI50 [37]: > 100 µM (inactive)
GI50 [38]: > 100 µM (inactive)
GI50 [39]: > 100 µM (inactive)
GI50 [40]: > 100 µM (inactive)
GI50 [41]: > 100 µM (inactive)
GI50 [42]: > 100 µM (inactive)
GI50 [43]: > 100 µM (inactive)
GI50 [44]: > 100 µM (inactive)
GI50 [45]: > 100 µM (inactive)
GI50 [46]: > 100 µM (inactive)
GI50 [47]: 85.3 µM (inactive)
GI50 [48]: > 100 µM (inactive)
GI50 [49]: > 100 µM (inactive)
GI50 [50]: 42.9 µM (inactive)
GI50 [51]: > 100 µM (inactive)
GI50 [52]: 68.9 µM (inactive)
GI50 [53]: 51.2 µM (inactive)

C=C1C(=O)OC2CC(C)C3C=CC(=O)C3CC12 (stereo not drawn)
GI50 [1]: 3.88 µM (inactive)
GI50 [2]: 2.02 µM (inactive)
GI50 [3]: 3.62 µM (inactive)
GI50 [59]: 1.85 µM (inactive)
GI50 [4]: 1.72 µM (inactive)
GI50 [5]: 16.1 µM (inactive)
GI50 [6]: 2.08 µM (inactive)
GI50 [7]: 5.77 µM (inactive)
GI50 [8]: 2.04 µM (inactive)
GI50 [9]: 7.93 µM (inactive)
GI50 [10]: 1.85 µM
GI50 [54]: 11.5 µM (inactive)
GI50 [11]: 1.46 µM (inactive)
GI50 [60]: 2.37 µM (inactive)
GI50 [12]: 1.71 µM (inactive)
GI50 [55]: 0.824 µM (active)
GI50 [13]: 1.5 µM (inactive)
GI50 [14]: 2.55 µM (inactive)
GI50 [61]: 1.89 µM (inactive)
GI50 [16]: 5.13 µM (inactive)
GI50 [17]: 0.428 µM (active)
GI50 [56]: 1.52 µM (inactive)
GI50 [62]: 2.07 µM (inactive)
GI50 [18]: 1.68 µM (inactive)
GI50 [57]: 5.51 µM (inactive)
GI50 [19]: 5.64 µM (inactive)
GI50 [20]: 0.61 µM (active)
GI50 [21]: 6.76 µM (inactive)
GI50 [22]: 1.53 µM (inactive)
GI50 [23]: 14.6 µM (inactive)
GI50 [24]: 3.08 µM (inactive)
GI50 [25]: 0.867 µM (active)
GI50 [26]: 15.9 µM (inactive)
GI50 [63]: 3.52 µM (inactive)
GI50 [27]: 2.96 µM (inactive)
GI50 [28]: 2.02 µM (inactive)
GI50 [58]: 3.54 µM (inactive)
GI50 [29]: 2.64 µM (inactive)
GI50 [30]: 1.76 µM (inactive)
GI50 [64]: 2.64 µM (inactive)
GI50 [31]: 2.9 µM (inactive)
GI50 [32]: 4.73 µM (inactive)
GI50 [33]: 2.95 µM (inactive)
GI50 [34]: 2.17 µM (inactive)
GI50 [35]: 3.16 µM (inactive)
GI50 [36]: 2.94 µM (inactive)
GI50 [65]: 5.41 µM (inactive)
GI50 [37]: 1.26 µM (inactive)
GI50 [38]: 1.88 µM (inactive)
GI50 [39]: 1.63 µM (inactive)
GI50 [40]: 2.72 µM (inactive)
GI50 [41]: 2.14 µM (inactive)
GI50 [42]: 1.71 µM (inactive)
GI50 [43]: 0.891 µM (active)
GI50 [44]: 1.62 µM (inactive)
GI50 [45]: 3.29 µM (inactive)
GI50 [46]: 15.4 µM (inactive)
GI50 [47]: 3.42 µM (inactive)
GI50 [66]: 2.34 µM (inactive)
GI50 [48]: 2.44 µM (inactive)
GI50 [67]: 3.31 µM (inactive)
GI50 [49]: 0.998 µM (active)
GI50 [50]: 12.1 µM (inactive)
GI50 [51]: 2.05 µM (inactive)
GI50 [52]: 1.26 µM (inactive)
GI50 [53]: 1.83 µM (inactive)
